Test results taken from PubChem BioAssay (NCI).
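Five concentrations, 48 hours, 96-well plates. TGI: total growth inhibition.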

Experiments:
Experiment in all cases: NCI anticancer screen, dose series, 48 h
NCI-H522 lung = tested on: NCI-H522 lung
786-0 renal = tested on: 786-0 renal
IGROV1 ovarian = tested on: IGROV1 ovarian
HCC-2998 colon = tested on: HCC-2998 colon
OVCAR-4 ovarian = tested on: OVCAR-4 ovarian
CCRF-CEM leukemia = tested on: CCRF-CEM leukemia
HS 578T breast = tested on: HS 578T breast
SK-MEL-2 melanoma = tested on: SK-MEL-2 melanoma
SF-268 CNS = tested on: SF-268 CNS
UO-31 renal = tested on: UO-31 renal
OVCAR-8 ovarian = tested on: OVCAR-8 ovarian
A498 renal = tested on: A498 renal
U251 CNS = tested on: U251 CNS
RXF 393 renal = tested on: RXF 393 renal
TK-10 renal = tested on: TK-10 renal
M14 melanoma = tested on: M14 melanoma
HCT-15 colon = tested on: HCT-15 colon
SR leukemia = tested on: SR leukemia
MALME-3M melanoma = tested on: MALME-3M melanoma
K-562 leukemia = tested on: K-562 leukemia
SK-MEL-28 melanoma = tested on: SK-MEL-28 melanoma
DU-145 prostate = tested on: DU-145 prostate
UACC-62 melanoma = tested on: UACC-62 melanoma
MDA-MB-435 = tested on: MDA-MB-435
OVCAR-5 ovarian = tested on: OVCAR-5 ovarian
SN12C renal = tested on: SN12C renal
A549 NSCLC = tested on: A549 NSCLC
RPMI-8226 leukemia = tested on: RPMI-8226 leukemia
MDA-MB-231 breast = tested on: MDA-MB-231 breast
EKVX NSCLC = tested on: EKVX NSCLC
NCI-H23 lung = tested on: NCI-H23 lung
SNB-75 CNS = tested on: SNB-75 CNS
MOLT-4 leukemia = tested on: MOLT-4 leukemia
MCF7 breast = tested on: MCF7 breast
PC-3 prostate = tested on: PC-3 prostate
SF-295 CNS = tested on: SF-295 CNS
HL-60(TB) leukemia = tested on: HL-60(TB) leukemia
HOP-62 NSCLC = tested on: HOP-62 NSCLC
SK-MEL-5 melanoma = tested on: SK-MEL-5 melanoma
SW-620 colon = tested on: SW-620 colon
SK-OV-3 ovarian = tested on: SK-OV-3 ovarian
KM12 colon = tested on: KM12 colon
SF-539 CNS = tested on: SF-539 CNS
HT29 colon = tested on: HT29 colon
HCT-116 colon = tested on: HCT-116 colon
OVCAR-3 ovarian = tested on: OVCAR-3 ovarian
UACC-257 melanoma = tested on: UACC-257 melanoma
NCI-H226 lung = tested on: NCI-H226 lung
BT-549 breast = tested on: BT-549 breast
MDA-N = tested on: MDA-N
HOP-92 NSCLC = tested on: HOP-92 NSCLC
T-47D breast = tested on: T-47D breast
COLO 205 colon = tested on: COLO 205 colon
ACHN renal = tested on: ACHN renal
NCI/ADR-RES ovarian = tested on: NCI/ADR-RES ovarian
SNB-19 CNS = tested on: SNB-19 CNS
NCI-H460 lung = tested on: NCI-H460 lung
CAKI-1 renal = tested on: CAKI-1 renal
LOX IMVI melanoma = tested on: LOX IMVI melanoma

`C=C(Br)C(C)(Br)CCC(Br)C(C)(C)Cl` (centres undefined) showed a TGI (NCI-H522 lung) of 20.4 µM, a TGI (786-0 renal) of 33.5 µM and a TGI (IGROV1 ovarian) of 18.3 µM. The TGI (HCC-2998 colon) was 32.7 µM, the TGI (OVCAR-4 ovarian) was 34.4 µM and the TGI (CCRF-CEM leukemia) was 13.4 µM. It also gave a TGI (HS 578T breast) of 72 µM, a TGI (SK-MEL-2 melanoma) of 51.6 µM and a TGI (SF-268 CNS) of 36.1 µM. The TGI (UO-31 renal) was 32 µM, the TGI (OVCAR-8 ovarian) was 35.7 µM and the TGI (A498 renal) was 45.5 µM. The TGI (U251 CNS) was 29.7 µM, the TGI (RXF 393 renal) was 37.5 µM and the TGI (TK-10 renal) was 32.7 µM. For the same molecule, the TGI (M14 melanoma) was 39 µM, the TGI (HCT-15 colon) was 32.7 µM and the TGI (SR leukemia) was 27.9 µM. For the same molecule, the TGI (MALME-3M melanoma) was 39.3 µM, the TGI (K-562 leukemia) was > 47.5 µM and the TGI (SK-MEL-28 melanoma) was 33.3 µM. For the same molecule, the TGI (DU-145 prostate) was 43.1 µM, the TGI (UACC-62 melanoma) was 40.7 µM and the TGI (MDA-MB-435) was 41.9 µM. The TGI (OVCAR-5 ovarian) was 39.7 µM, the TGI (SN12C renal) was 39.5 µM and the TGI (A549 NSCLC) was > 100 µM. The TGI (RPMI-8226 leukemia) was 58.4 µM, the TGI (MDA-MB-231 breast) was 34.8 µM and the TGI (EKVX NSCLC) was 51.3 µM. It also gave a TGI (NCI-H23 lung) of 36.5 µM, a TGI (SNB-75 CNS) of 33.9 µM and a TGI (MOLT-4 leukemia) of 24.5 µM. It also gave a TGI (MCF7 breast) of 31.5 µM, a TGI (PC-3 prostate) of 36.3 µM and a TGI (SF-295 CNS) of 32.7 µM. The TGI (HL-60(TB) leukemia) was 16.2 µM, the TGI (HOP-62 NSCLC) was 39.4 µM and the TGI (SK-MEL-5 melanoma) was 32.4 µM. For the same molecule, the TGI (SW-620 colon) was 30.4 µM, the TGI (SK-OV-3 ovarian) was 60.4 µM and the TGI (KM12 colon) was 32 µM. For the same molecule, the TGI (SF-539 CNS) was 31.6 µM, the TGI (HT29 colon) was 40.7 µM and the TGI (HCT-116 colon) was 25 µM. For the same molecule, the TGI (OVCAR-3 ovarian) was 33.5 µM, the TGI (UACC-257 melanoma) was 37.4 µM and the TGI (NCI-H226 lung) was 81.3 µM. For the same molecule, the TGI (BT-549 breast) was 52.6 µM, the TGI (MDA-N) was 39.8 µM and the TGI (HOP-92 NSCLC) was 30.2 µM. It also gave a TGI (T-47D breast) of 44.1 µM, a TGI (COLO 205 colon) of 33.8 µM and a TGI (ACHN renal) of 35.6 µM. For the same molecule, the TGI (NCI/ADR-RES ovarian) was 54.2 µM, the TGI (SNB-19 CNS) was 34.4 µM and the TGI (NCI-H460 lung) was 36.6 µM.
Work on `COc1ccc2c(c1)/C(=C\c1c(Cl)nc3sc(C)cn13)C(=O)N2` yielded a TGI (NCI-H522 lung) of 14.4 µM, a TGI (786-0 renal) of 15.1 µM and a TGI (IGROV1 ovarian) of 16.7 µM. The TGI (HCC-2998 colon) was 18.3 µM, the TGI (CCRF-CEM leukemia) was 6.15 µM and the TGI (HS 578T breast) was 9.6 µM. For the same molecule, the TGI (SK-MEL-2 melanoma) was 8.41 µM, the TGI (SF-268 CNS) was 17.3 µM and the TGI (CAKI-1 renal) was 17.1 µM. It also gave a TGI (UO-31 renal) of 19 µM, a TGI (OVCAR-8 ovarian) of 15.1 µM and a TGI (A498 renal) of 16.6 µM. The TGI (U251 CNS) was 11.6 µM, the TGI (RXF 393 renal) was 21.1 µM and the TGI (TK-10 renal) was 19.1 µM. For the same molecule, the TGI (M14 melanoma) was 8.89 µM, the TGI (HCT-15 colon) was 22.4 µM and the TGI (SR leukemia) was 15.6 µM. It also gave a TGI (MALME-3M melanoma) of 19.9 µM, a TGI (K-562 leukemia) of 9.56 µM and a TGI (SK-MEL-28 melanoma) of 25.5 µM. It also gave a TGI (DU-145 prostate) of 18.2 µM, a TGI (UACC-62 melanoma) of 16.4 µM and a TGI (MDA-MB-435) of 1.43 µM. It also gave a TGI (OVCAR-5 ovarian) of 25.4 µM, a TGI (SN12C renal) of 21.9 µM and a TGI (A549 NSCLC) of 17 µM. The TGI (RPMI-8226 leukemia) was 13.8 µM, the TGI (MDA-MB-231 breast) was 17.7 µM and the TGI (EKVX NSCLC) was 21.2 µM. For the same molecule, the TGI (NCI-H23 lung) was 18.9 µM, the TGI (SNB-75 CNS) was 17.1 µM and the TGI (MOLT-4 leukemia) was 8.41 µM. For the same molecule, the TGI (MCF7 breast) was 14.2 µM, the TGI (PC-3 prostate) was 12.4 µM and the TGI (SF-295 CNS) was 11 µM. For the same molecule, the TGI (HL-60(TB) leukemia) was 6.11 µM, the TGI (HOP-62 NSCLC) was 19.4 µM and the TGI (SK-MEL-5 melanoma) was 11.8 µM. It also gave a TGI (SW-620 colon) of 11.7 µM, a TGI (SK-OV-3 ovarian) of 14.6 µM and a TGI (KM12 colon) of 15.2 µM. It also gave a TGI (SF-539 CNS) of 6.76 µM, a TGI (LOX IMVI melanoma) of 18.1 µM and a TGI (HT29 colon) of 12.7 µM. The TGI (HCT-116 colon) was 14.1 µM, the TGI (OVCAR-3 ovarian) was 8.83 µM and the TGI (UACC-257 melanoma) was 21 µM. For the same molecule, the TGI (BT-549 breast) was 20.5 µM, the TGI (MDA-N) was 2.04 µM and the TGI (HOP-92 NSCLC) was 23.1 µM. For the same molecule, the TGI (T-47D breast) was 14.6 µM, the TGI (COLO 205 colon) was 9.45 µM and the TGI (ACHN renal) was 20.1 µM. It also gave a TGI (NCI/ADR-RES ovarian) of 17.7 µM, a TGI (SNB-19 CNS) of 13.4 µM and a TGI (NCI-H460 lung) of 12.3 µM.
